Among the data in patent publication US11464770B2, “Anticancer pharmaceutical composition” (NATIONAL CANCER CENTER, priority 2016, dated 2022) are IC50 values, retold here.

Like-named read-outs stand apart in the source and are kept apart here.

The assay concerns breast cancer cell lines (e.g. MDA-MB-231, SK-BR-3, MDA-MB-468, HCC1954). Nature of the assay: Cell based assay, cell viability (CellTiter-Glo), breast cancer cell lines. The method, then: Commercially available bladder cancer, prostate cancer, lung cancer, breast cancer, blood cancer, pancreatic cancer, colorectal cancer, brain cancer, neuroblastoma, melanoma, liver cancer, cervical carcinoma, ovarian cancer, renal cancer, and papilloma cell lines were each treated with trypsin-EDTA and cultured, followed by being seeded in each well of a 96 well plate. After 24 hours of treatment at constant temperature, the respective cells were treated with the candidate compound so that a final concentration became 0 to 2 μM. The treated cells were additionally cultured for 72 hours, and cell viability was measured by using an ATP detection method (CellTiter-Glo® Luminescent Cell Viability Assay, Promega).
Background: ATP-based viability assays read luminescence as a measure of living cells.

Where [1] appears, read: Breast cancer cell line MDA-MB-231-L/DOX, 72 hours, CellTiter-Glo, read-out: IC50, MDA-MB-231-L/DOX.
Setting [2] is: Homo sapiens, Breast cancer cell line BT-20, 72 hours, CellTiter-Glo, read-out: IC50, BT-20.
Where [3] appears, read: Homo sapiens, Breast cancer cell line HCC1395, 72 hours, CellTiter-Glo, read-out: IC50, HCC1395.
[4] abbreviates: Homo sapiens, Breast cancer cell line HCC1954, 72 hours, CellTiter-Glo, read-out: IC50, HCC1954.
Where [5] appears, read: Homo sapiens, Breast cancer cell line JIMT-1, 72 hours, CellTiter-Glo, read-out: IC50, JIMT-1.
Setting [6] is: Homo sapiens, Breast cancer cell line MCF7, 72 hours, CellTiter-Glo, read-out: IC50, MCF7.
The mark [7] stands for this setting: Homo sapiens, Breast cancer cell line MDA-MB-231, 72 hours, CellTiter-Glo, read-out: IC50, MDA-MB-231.
[8] abbreviates: Homo sapiens, Breast cancer cell line MDA-MB-468, 72 hours, CellTiter-Glo, read-out: IC50, MDA-MB-468.
[9] abbreviates: Homo sapiens, Breast cancer cell line SK-BR-3, 72 hours, CellTiter-Glo, read-out: IC50, SK-BR-3.
[10] abbreviates: Homo sapiens, BT-20 cells, 72 hours treatment, CellTiter-Glo cell viability, read-out: IC50, Breast cancer cell line BT-20.
Setting [11] is: Homo sapiens, HCC1395 cells, 72 hours treatment, CellTiter-Glo cell viability, read-out: IC50, Breast cancer cell line HCC1395.
The mark [12] stands for this setting: Homo sapiens, HCC1954 cells, 72 hours treatment, CellTiter-Glo cell viability, read-out: IC50, Breast cancer cell line HCC1954.
Setting [13] is: Homo sapiens, JIMT-1 cells, 72 hours treatment, CellTiter-Glo cell viability, read-out: IC50, Breast cancer cell line JIMT-1.
Where [14] appears, read: Homo sapiens, MCF7 cells, 72 hours treatment, CellTiter-Glo cell viability, read-out: IC50, Breast cancer cell line MCF7.
Setting [15] is: Homo sapiens, MDA-MB-231 cells, 72 hours treatment, CellTiter-Glo cell viability, read-out: IC50, Breast cancer cell line MDA-MB-231.
Where [16] appears, read: Homo sapiens, MDA-MB-468 cells, 72 hours treatment, CellTiter-Glo cell viability, read-out: IC50, Breast cancer cell line MDA-MB-468.
Setting [17] is: Homo sapiens, SK-BR-3 cells, 72 hours treatment, CellTiter-Glo cell viability, read-out: IC50, Breast cancer cell line SK-BR-3.
Where [18] appears, read: MDA-MB-231-L/DOX cells, 72 hours treatment, CellTiter-Glo cell viability, read-out: IC50, Breast cancer cell line MDA-MB-231-L/DOX.

On to `CSc1c(C(C)=O)c(=O)c2c(Cl)ccc(Br)c2n1S(C)(=O)=O` [Compound 35, 3-acetyl-8-bromo-5-chloro-1-(methylsulfonyl)-2-(methylthio)quinolin-4(1H)-one], for which the IC50 under setting [1] was greater than 2000 nM; the IC50 under setting [2] was greater than 2000 nM; the IC50 under setting [3] is greater than 10000 nM; the IC50 under setting [4] was greater than 2000 nM; the IC50 under setting [5] was greater than 10000 nM; the IC50 under setting [6] is greater than 2000 nM. Moreover, the IC50 was greater than 2000 nM under setting [7], greater than 2000 nM under setting [8] and greater than 2000 nM under setting [9].

Turning to `CC(=O)c1c([S+]([O-])Cc2ccccc2)nc2c(Br)ccc(Cl)c2c1O` (stereo not drawn) [Compound 53, 1-(2-(benzylsulfinyl)-8-bromo-5-chloro-4-hydroxyquinolin-3-yl)ethan-1-one], the IC50 was greater than 2000 nM under setting [1]; greater than 2000 nM under setting [2]; greater than 10000 nM under setting [3]; greater than 2000 nM under setting [4]; greater than 10000 nM under setting [5]; greater than 2000 nM under setting [6]. Moreover, the IC50 was greater than 2000 nM under setting [7], greater than 2000 nM under setting [8] and greater than 2000 nM under setting [9].

As to `CC(=O)c1c([S+]([O-])CC#N)[nH]c2c(Br)ccc(Cl)c2c1=O` (stereo not drawn) [Compound 65, 2-((3-acetyl-8-bromo-5-chloro-4-oxo-1,4-dihydroquinolin-2-yl)sulfinyl)acetonitrile], the IC50 by setting is: under setting [1], greater than 2000 nM; under setting [2], greater than 2000 nM; under setting [3], greater than 10000 nM; under setting [4], greater than 2000 nM; under setting [5], greater than 10000 nM; under setting [6], greater than 2000 nM. The IC50 is greater than 2000 nM under setting [7], greater than 2000 nM under setting [8] and greater than 2000 nM under setting [9].

Take `COc1cccc2[nH]c(SCc3ccc(S(F)(F)(F)(F)F)cc3)c(C(C)=O)c(=O)c12` [Compound 92, 3-acetyl-5-methoxy-2-((4-(pentafluoro--sulfanyl)benzyl)thio)quinolin-4(1H)-one]: the IC50 runs as follows: under setting [10], greater than 2000 nM; under setting [11], greater than 10000 nM; under setting [12], greater than 2000 nM; under setting [13], greater than 10000 nM; under setting [14], greater than 2000 nM; under setting [15], greater than 2000 nM. Besides, the IC50 is greater than 2000 nM under setting [16], greater than 2000 nM under setting [17] and greater than 2000 nM under setting [18].

As to `CSc1c(C(C)=O)c(=O)c2c(Cl)ccc(Br)c2n1S(=O)(=O)c1ccc(C(C)(C)C)cc1` [Compound 40, 3-acetyl-8-bromo-1-((4-(tert-butyl)phenyl)sulfonyl)-5-chloro-2-(methylthio)quinolin-4(1H)-one], the IC50 runs as follows: under setting [1], greater than 2000 nM; under setting [2], greater than 2000 nM; under setting [3], greater than 10000 nM; under setting [4], greater than 2000 nM; under setting [5], greater than 10000 nM; under setting [6], greater than 2000 nM. Further, the IC50 was greater than 2000 nM under setting [7], greater than 2000 nM under setting [8] and greater than 2000 nM under setting [9].

Regarding `COc1ccccc1[S+]([O-])c1[nH]c2c(Br)ccc(Cl)c2c(=O)c1C(C)=O` (stereo not drawn) [Compound 15, 3-acetyl-8-bromo-5-chloro-2-((2-methoxyphenyl)sulfinyl)quinolin-4(1H)-one], the IC50 is greater than 2000 nM under setting [1]; greater than 2000 nM under setting [2]; greater than 10000 nM under setting [3]; greater than 2000 nM under setting [4]; greater than 10000 nM under setting [5]; greater than 2000 nM under setting [6]. The IC50 is, setting by setting: under setting [7], greater than 2000 nM; under setting [8], greater than 2000 nM; under setting [9], 1680 nM.

For the molecule `CC(=O)c1c([S+](C)[O-])[nH]c2c(Cl)ccc(Cl)c2c1=O` (stereo not drawn) [Compound 6, 3-acetyl-5,8-dichloro-2-(methylsulfinyl)quinolin-4(1H)-one], the IC50 is, setting by setting: under setting [1], greater than 2000 nM; under setting [2], greater than 2000 nM; under setting [3], greater than 10000 nM; under setting [4], greater than 2000 nM; under setting [5], greater than 10000 nM; under setting [6], greater than 2000 nM. Further, the IC50 reads like this: under setting [7], greater than 2000 nM; under setting [8], greater than 2000 nM; under setting [9], 1120 nM.

In the case of `Cc1cc(C[S+]([O-])c2[nH]c3c(Cl)ccc(Cl)c3c(=O)c2C(=O)c2ccccc2)no1` (stereo not drawn) [Compound 88, 3-benzoyl-5,8-dichloro-2-(((5-methylisoxazol-3-yl)methyl)sulfinyl)quinolin-4(1H)-one], the IC50 by setting is: under setting [10], greater than 2000 nM; under setting [11], greater than 10000 nM; under setting [12], greater than 2000 nM; under setting [13], greater than 10000 nM; under setting [14], greater than 2000 nM; under setting [15], greater than 2000 nM. Further, the IC50 is, setting by setting: under setting [16], greater than 2000 nM; under setting [17], greater than 2000 nM; under setting [18], greater than 2000 nM.

As for `CC(=O)c1c(SCc2ccccc2)nc2c(Br)ccc(Cl)c2c1O` [Compound 52, 1-(2-(benzylthio)-8-bromo-5-chloro-4-hydroxyquinolin-3-yl)ethan-1-one], the IC50 runs as follows: under setting [1], greater than 2000 nM; under setting [2], greater than 2000 nM; under setting [3], greater than 10000 nM; under setting [4], greater than 2000 nM; under setting [5], greater than 10000 nM; under setting [6], greater than 2000 nM. The IC50 was greater than 2000 nM under setting [7], greater than 2000 nM under setting [8] and greater than 2000 nM under setting [9].

In the case of `CC(=O)c1c([S+]([O-])Cc2ccc(C(F)(F)F)o2)[nH]c2c(F)ccc(F)c2c1=O` (stereo not drawn) [Compound 81, 3-acetyl-5,8-difluoro-2-(((5-(trifluoromethyl)furan-2-yl)methyl)sulfinyl)quinolin-4(1H)-one], the IC50 runs as follows: under setting [1], greater than 2000 nM; under setting [2], greater than 2000 nM; under setting [3], greater than 10000 nM; under setting [4], greater than 2000 nM; under setting [5], greater than 10000 nM; under setting [6], greater than 2000 nM. Further, the IC50 reads like this: under setting [7], greater than 2000 nM; under setting [8], greater than 2000 nM; under setting [9], greater than 2000 nM.

As to `O=C(c1ccccc1)c1c([S+]([O-])Cc2ccc(S(F)(F)(F)(F)F)cc2)[nH]c2c(F)ccc(F)c2c1=O` (stereo not drawn) [Compound 87, 3-benzoyl-5,8-difluoro-2-((4-(pentafluoro--sulfanyl)benzyl)sulfinyl)quinolin-4(1H)-one], the IC50 was greater than 2000 nM under setting [10]; greater than 10000 nM under setting [11]; greater than 2000 nM under setting [12]; greater than 10000 nM under setting [13]; greater than 2000 nM under setting [14]; greater than 2000 nM under setting [15]. For the same molecule, the IC50 is, setting by setting: under setting [16], greater than 2000 nM; under setting [17], greater than 2000 nM; under setting [18], greater than 2000 nM.

Turning to `Cc1cc(C[S+]([O-])c2[nH]c3c(Cl)ccc(Cl)c3c(=O)c2C(=O)C2CC2)no1` (stereo not drawn) [Compound 97, 5,8-dichloro-3-(cyclopropanecarbonyl)-2-(((5-methylisoxazol-3-yl)methyl)sulfinyl)quinolin-4(1H)-one], the IC50 is greater than 2000 nM under setting [10]; greater than 10000 nM under setting [11]; 780 nM under setting [12]; greater than 10000 nM under setting [13]; greater than 2000 nM under setting [14]; 1780 nM under setting [15]. Also, the IC50 reads like this: under setting [16], 760 nM; under setting [17], 760 nM; under setting [18], 1130 nM.

For `CSc1c(C(C)=O)c(=O)c2c(Cl)ccc(Br)c2n1S(=O)(=O)c1ccc([N+](=O)[O-])cc1` [Compound 38, 3-acetyl-8-bromo-5-chloro-2-(methylthio)-1-((4-nitrophenyl)sulfonyl)quinolin-4(1H)-one], the IC50 was greater than 2000 nM under setting [1]; greater than 2000 nM under setting [2]; greater than 10000 nM under setting [3]; greater than 2000 nM under setting [4]; greater than 10000 nM under setting [5]; greater than 2000 nM under setting [6]. Besides, the IC50 was greater than 2000 nM under setting [7], greater than 2000 nM under setting [8] and greater than 2000 nM under setting [9].

For `CC(=O)c1c([S+]([O-])Cc2ccc(C(=O)c3ccccc3)cc2)[nH]c2c(Br)ccc(Cl)c2c1=O` (stereo not drawn) [Compound 63, 3-acetyl-2-((4-benzoylbenzyl)sulfinyl)-8-bromo-5-chloroquinolin-4(1H)-one], the IC50 under setting [1] is greater than 2000 nM; the IC50 under setting [2] is greater than 2000 nM; the IC50 under setting [3] is greater than 10000 nM; the IC50 under setting [4] was greater than 2000 nM; the IC50 under setting [5] is greater than 10000 nM; the IC50 under setting [6] was greater than 2000 nM. Also, the IC50 by setting is: under setting [7], greater than 2000 nM; under setting [8], greater than 2000 nM; under setting [9], greater than 2000 nM.

On to `CC(=O)c1c(SCc2ccccc2)[nH]c2c(Br)ccc(Cl)c2c1=O` [Compound 3, 3-acetyl-2-(benzylthio)-8-bromo-5-chloroquinolin-4(1H)-one], for which the IC50 under setting [1] was greater than 2000 nM; the IC50 under setting [2] was greater than 2000 nM; the IC50 under setting [3] was greater than 10000 nM; the IC50 under setting [4] is greater than 2000 nM; the IC50 under setting [5] was greater than 10000 nM; the IC50 under setting [6] is greater than 2000 nM. For the same molecule, the IC50 was greater than 2000 nM under setting [7], greater than 2000 nM under setting [8] and greater than 2000 nM under setting [9].

In the case of `CC(=O)c1c([S+]([O-])C(C)c2ccccc2)[nH]c2c(Br)ccc(Cl)c2c1=O` (stereo not drawn) [Compound 26, 3-acetyl-8-bromo-5-chloro-2-((1-phenylethyl)sulfinyl)quinolin-4(1H)-one], the IC50 under setting [1] was greater than 2000 nM; the IC50 under setting [2] is greater than 2000 nM; the IC50 under setting [3] is greater than 10000 nM; the IC50 under setting [4] was greater than 2000 nM; the IC50 under setting [5] was greater than 10000 nM; the IC50 under setting [6] was greater than 2000 nM. Further, the IC50 under setting [7] is greater than 2000 nM, the IC50 under setting [8] was greater than 2000 nM and the IC50 under setting [9] was greater than 2000 nM.
